Experimental data from patent US20230016182A1, “EO/PO-MODIFIED 9-PHENYLACRIDINE PHOTOSENSITIZERS AND APPLICATION THEREOF” (Changzhou Tronly New Electronic Materials Co., Ltd., priority 2019, published 2023).

Experiment: Photosensitizer solubility test in 2-butanone and PGMEA
Format: physicochemical
Settings: Test temperature 25° C.; for Solubility in 2-butanone: solvent 2-butanone
From the text: Among them, 9-phenylacridine (denoted as C7, produced by CHANGZHOU TRONLY NEW ELECTRONIC MATERIALS CO., LTD.) was used for comparison.

Compound	Solubility in 2-butanone	Solubility in PGMEA (solvent PGMEA)
COCCOCCOCCOc1ccc(-c2c3ccccc3nc3ccccc23)cc1 [Product C1]	21.10 g	
c1ccc(-c2c3ccccc3nc3ccccc23)cc1 [Product C7, 9-phenylacridine]	0.74 g	0.51 g
